Laboratory results published in publication PMC12006171, “Marsupial cathelicidins: characterization, antimicrobial activity and evolution in this unique mammalian lineage” (Frontiers in Immunology, 2025).
In brackets after ≈: the same amount, converted by molar mass. Like-named read-outs stand apart in the source and are kept apart here. Where a SMILES comes first, the peptide text is derived from it.

Experiments:
[1] = tested on: three fungi (Candida krusei, Candida parapsilosis, Candida albicans); design: method as in 4 sources, ref Peel et al 2016 ||| ref Peel et al 2021 ||| ref Wang et al 2011 ||| ref Peel et al 2017; details: mature peptide; Y/N summary from earlier study; ref Peel et al 2016; cited from earlier work
[2] = tested on: six bacteria (S. aureus, E. coli, P. aeruginosa; ATCC and clinical isolate); design: method as in 4 sources, ref Peel et al 2016 ||| ref Peel et al 2021 ||| ref Wang et al 2011 ||| ref Peel et al 2017; details: mature peptide; Y/N summary from earlier study; ref Peel et al 2016; cited from earlier work
[3] = tested on: Tasmanian devil facial tumor disease; details: cited from earlier work
Description: Many marsupial and monotreme cathelicidins were closely related to the classic cathelicidins found in eutherians. These cathelicidins sit within clade II in the phylogenetic tree, sister to eutherians but were not orthologous ( Figure 3 ). Classic marsupial cathelicidins were encoded in cluster A in the genome of all marsupials and monotremes studied, syntenic to the single cathelicidin gene/cluster in eutherians ( Figure 2 ). Many of these were antimicrobial and bactericidal, with MICs equal to or less than eutherian peptides such as cow BMAP-27 and -28 ([87]) and human LL-37, including again ...

E. coli ATCC 25922 = assay: Killing kinetics (time kill assay); assay type: cell-based, Escherichia coli; details: MHB, 35°C, sampled 1-24 hours, n = 2
Procedure: The killing kinetics assay was conducted using mid-logarithmic phase cultures of E. coli ATCC 25922 and S. aureus ATCC 29213 in MHB. Cultures were adjusted to a 0.5 McFarland standard, diluted in MHB, and then 100µL was added to each culture tube containing 10mL pre-warmed MHB to give a final inoculum concentration of 5 x 10^5 CFU/mL. A sterility control of 100uL MHB, growth control (no cathelicidin), and vehicle control (DMSO) were also included. Furthermore, 10uL was immediately removed from the growth control tube, diluted 1/1000 in saline and 100µL plated onto MHA in duplicate to confirm inoculum density. To establish colony counts from 0 hours of cathelicidin treatment, 200µL was removed from each culture tube and serially diluted ten-fold in saline from 10^0 to […] in a total volume of 200µL. Then, 10µL of each dilution was spotted onto MHA in duplicate, which were incubated at 35°C for 24 hours.
All culture tubes were then incubated at 35°C static. At 1, 2, 4, 6, 8, 10, 12, and 24 hours post-cathelicidin treatment, 200µL was removed from each culture tube for dilution and plated on MHA as described above. […] Counts of duplicates were averaged, and the log10 CFU/mL graphed against time. This was used as input for one-way ANOVA (p < 0.05) followed by Dunnett’s post hoc test.

[4] = tested on: Escherichia coli ATCC 25922; assay: microbe, parasite or virus in culture; assay type: cell-based
In short: (§1)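 CLSI broth microdilution, MHB ± cations ± 10% lysed horse blood; peptide 64-0.125μg/mL final, duplicates; 5 x 10^5 CFU/mL; 35°C, 20–24 h; MIC = no visible growth.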

[5] = tested on: Staphylococcus aureus ATCC 29213; assay: microbe, parasite or virus in culture; assay type: cell-based; details: ATCC 29213; read-out: MIC S. aureus ATCC
In short: as §1

[6] = tested on: Escherichia coli clinical isolate - animal; assay: microbe, parasite or virus in culture; assay type: cell-based
In short: as §1

[7] = tested on: Pseudomonas aeruginosa ATCC 27853; assay: microbe, parasite or virus in culture; assay type: cell-based
In short: as §1

[8] = tested on: Staphylococcus aureus clinical isolate - animal; assay: microbe, parasite or virus in culture; assay type: cell-based; details: clinical isolate - animal; read-out: MIC S. aureus
In short: as §1

[9] = tested on: Pseudomonas aeruginosa clinical isolate - animal; assay: microbe, parasite or virus in culture; assay type: cell-based
In short: as §1

[10] = tested on: Streptococcus agalactiae Clinical isolate - animal; assay: microbe, parasite or virus in culture; assay type: cell-based; details: clinical isolate - animal; read-out: MIC S. agalactiae
In short: (§2)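 Broth microdilution per CLSI M07-A/M26A; peptides in DMSO, final 64-0.125 μg/mL, inoculum 5 x 10^5 CFU/mL. Bacteria in MHB ± 10% lysed horse blood ± Ca/Mg cations, yeasts in RPMI-1640 MOPS; 35°C for 20–24 h. MIC is lowest concentration without visible growth.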

[11] = tested on: Streptococcus pneumoniae ATCC 49619; assay: microbe, parasite or virus in culture; assay type: cell-based; details: ATCC 49619; read-out: MIC S. pneumoniae ATCC
In short: as §2

[12] = tested on: Streptococcus agalactiae ATCC 12386; assay: microbe, parasite or virus in culture; assay type: cell-based; details: ATCC 12386; read-out: MIC S. agalactiae ATCC
In short: as §2

[13] = tested on: six bacteria (S. aureus, E. coli, P. aeruginosa; ATCC and clinical isolate); assay type: cell-based
In short: as §1

[14] = tested on: Candida parapsilosis ATCC 22019; assay: microbe, parasite or virus in culture; assay type: cell-based; details: ATCC 22019
In short: as §2

[15] = tested on: Candida albicans Clinical isolate - human; assay: microbe, parasite or virus in culture; assay type: cell-based; details: Clinical isolate - human; read-out: MIC C. albicans
In short: as §2

Candida krusei ATCC 6258 = assay: microbe, parasite or virus in culture; assay type: cell-based; details: ATCC 6258; read-out: MIC C. krusei ATCC
In short: as §2

[16] = clinical isolate - animal, read-out: MIC P. aeruginosa
[17] = MHB without cations, 5 x 10^5 CFU/mL, 35°C 20–24 hours, duplicate
[18] = superscript value, cation-adjusted Mueller Hinton broth
[19] = value in brackets, 99.9% reduction in CFU/mL
[20] = clinical isolate, MHB without cations, 5 x 10^5 CFU/mL, 35°C 20–24 hours, duplicate
[21] = clinical isolate, superscript value, cation-adjusted Mueller Hinton broth
[22] = clinical isolate, value in brackets, 99.9% reduction in CFU/mL

KRIRFFERIRDRLRDLGNRIKNRIRDFFS [SahaCath6, Tasmanian devil cathelicidin, reference compound]
Antifungal (MIC <64ug/mL) [1]: Y (Peel et al 2016) (Antifungal (MIC <64ug/mL)) | Antibacterial (MIC <64ug/mL) [2]: Y (Peel et al 2016) (Antibacterial (MIC <64ug/mL)) | Toxicity to Tasmanian devil facial tumor disease [3]: toxic to Tasmanian devil facial tumor disease

CC[C@H](C)[C@H](NC(=O)[C@H](CC(=O)O)NC(=O)[C@H](CC(=O)O)NC(=O)CNC(=O)[C@H](CC(C)C)NC(=O)[C@H](CCCCN)NC(=O)[C@@H](NC(=O)[C@H](C)NC(=O)[C@H](CCCCN)NC(=O)[C@H](CCCNC(=N)N)NC(=O)[C@H](CCCCN)NC(=O)[C@H](CC(C)C)NC(=O)[C@H](CO)NC(=O)[C@H](CCC(=O)O)NC(=O)[C@H](Cc1c[nH]c2ccccc12)NC(=O)[C@H](CC(C)C)NC(=O)CNC(=O)[C@H](CCCNC(=N)N)NC(=O)[C@@H](N)CCCCN)[C@@H](C)O)C(=O)N[C@@H](CCCNC(=N)N)C(=O)N[C@@H](CC(N)=O)C(=O)N[C@H](C(=O)N[C@@H](CC(C)C)C(=O)N[C@@H](CCCNC(=N)N)C(=O)N[C@@H](CC(N)=O)C(=O)N[C@@H](Cc1ccccc1)C(=O)N[C@@H](CCCCN)C(=O)N[C@H](C(=O)N[C@@H](CCCCN)C(=O)N[C@H](C(=O)N1CCC[C@H]1C(=O)N[C@H](C(=O)N1CCC[C@H]1C(=O)N[C@@H](CCCNC(=N)N)C(=O)N[C@@H](CCC(N)=O)C(=O)N[C@@H](Cc1c[nH]c2ccccc12)C(=O)N1CCC[C@H]1C(=O)N[C@H](C(=O)N[C@@H](CCCNC(=N)N)C(=O)N[C@H](C(=O)O)C(C)C)[C@@H](C)CC)C(C)C)C(C)C)[C@@H](C)CC)[C@@H](C)O [MaruCath4] (H-KRGLWESLKRKATKLGDDIRNTLRNFKIKVPVPRQWPIRV-OH; N-terminus and C-terminus assumed)
Number of hours to cause a significant reduction in log CFU/mL of E. coli ATCC (p < 0.05) (E. coli ATCC 25922; 2x MIC): 4 hours | Number of hours to cause a significant reduction in log CFU/mL of E. coli ATCC (p < 0.05) (E. coli ATCC 25922; MIC): 4 hours | MIC E. coli ATCC ([4]; ATCC 25922): 1.6 (1.6)^1.6 µM | MIC in the presence of cations E. coli ATCC ([4]; ATCC 25922): 1.6 (1.6)^1.6 µM | MIC [5]: >13.2 µM | MBC E. coli ([6]; clinical isolate - animal): 6.6 (6.6)^6.6 µM | MIC E. coli ([6]; clinical isolate - animal): 6.6 (6.6)^6.6 µM | MIC in the presence of cations E. coli ([6]; clinical isolate - animal): 6.6 (6.6)^6.6 µM | MIC ([7]; ATCC 27853, read-out: MIC P. aeruginosa ATCC): >13.2 µM | MIC [8]: >13.2 µM | MIC [9, 16]: >13.2 µM | MIC [10]: >13.2 µM | MIC [11]: >13.2 µM | MIC [12]: >13.2 µM

KIKRIGLGGFIGRILDRIRRLG [SahaCath5, Tasmanian devil cathelicidin, reference compound]
Antifungal (MIC <64ug/mL) [1]: Y (Peel et al 2016) (Antifungal (MIC <64ug/mL)) | Antibacterial (MIC <64ug/mL) [2]: Y (Peel et al 2016) (Antibacterial (MIC <64ug/mL)) | Toxicity to Tasmanian devil facial tumor disease [3]: toxic to Tasmanian devil facial tumor disease

CC[C@H](C)[C@H](NC(=O)[C@H](CCCCN)NC(=O)[C@@H](NC(=O)[C@H](CC(N)=O)NC(=O)[C@H](CCCCN)NC(=O)[C@H](CC(C)C)NC(=O)[C@H](CCCNC(=N)N)NC(=O)[C@H](CCCCN)NC(=O)[C@H](CCCCN)NC(=O)[C@@H](NC(=O)[C@H](CO)NC(=O)[C@H](CCCCN)NC(=O)CNC(=O)[C@H](CC(C)C)NC(=O)[C@H](CCCCN)NC(=O)[C@H](CCCCN)NC(=O)[C@H](CC(C)C)NC(=O)[C@H](CCCCN)NC(=O)[C@H](CCCCN)NC(=O)[C@H](CCCNC(=N)N)NC(=O)[C@H](CC(C)C)NC(=O)CNC(=O)[C@H](CCCNC(=N)N)NC(=O)[C@@H](N)CO)[C@@H](C)CC)[C@@H](C)CC)C(=O)NCC(=O)N[C@@H](Cc1ccc(O)cc1)C(=O)N[C@@H](CO)C(=O)N[C@H](C(=O)N1CCC[C@H]1C(=O)N[C@@H](Cc1ccccc1)C(=O)N1CCC[C@H]1C(=O)NCC(=O)O)[C@@H](C)CC [PspeCath1] (H-SRGLRKKLKKLGKSIKKRLKNIKIGYSIPFPG-OH; N-terminus and C-terminus assumed)
MIC against at least one strain [13]: 4 µg/mL (≈ 1.09 µM) | Number of hours to cause a significant reduction in log CFU/mL of E. coli ATCC (p < 0.05) (E. coli ATCC 25922; 0.5x MIC): 2 hours | Number of hours to cause a significant reduction in log CFU/mL of E. coli ATCC (p < 0.05) (E. coli ATCC 25922; 2x MIC): 1 hours | Number of hours to cause a significant reduction in log CFU/mL of E. coli ATCC (p < 0.05) (E. coli ATCC 25922; MIC): 2 hours | MBC E. coli ATCC ([4]; ATCC 25922): 2.1 µM | MIC ([4]; ATCC 25922, read-out: MIC E. coli ATCC): 1 µM (≈ 3.65 µg/mL) | MIC ([4]; ATCC 25922, read-out: MIC in the presence of cations E. coli ATCC): 1 µM | MIC E. coli ATCC [4, 17]: 4 µg/mL (≈ 1.09 µM) | MIC in the presence of cations E. coli ATCC [4, 18]: 4 µg/mL | MBC E. coli ATCC [4, 19]: 8 µg/mL | MIC [5]: >17.5 µM | MBC E. coli ([6]; clinical isolate - animal): 1 µM | MIC ([6]; clinical isolate - animal): 1 µM (≈ 3.65 µg/mL) | MIC in the presence of cations E. coli ([6]; clinical isolate - animal): 0.5 µM | MIC E. coli [6, 20]: 4 µg/mL (≈ 1.09 µM) | MIC in the presence of cations E. coli [6, 21]: 2 µg/mL | MBC E. coli [6, 22]: 4 µg/mL | MBC P. aeruginosa ATCC ([7]; ATCC 27853): 2.1 (2.1)^2.1 µM | MIC P. aeruginosa ATCC ([7]; ATCC 27853): 2.1 (2.1)^2.1 µM | MIC in the presence of cations P. aeruginosa ATCC ([7]; ATCC 27853): 2.1 (2.1)^2.1 µM | MIC P. aeruginosa ATCC [7, 17]: 8 (8)^8 µg/mL | MIC in the presence of cations P. aeruginosa ATCC [7, 18]: 8 (8)^8 µg/mL | MBC P. aeruginosa ATCC [7, 19]: 8 (8)^8 µg/mL | MIC [8]: >17.5 µM | MBC P. aeruginosa ([9]; clinical isolate - animal): 4.3 µM | MIC [9, 16]: 2.1 µM (≈ 7.67 µg/mL) | MIC ([9]; clinical isolate - animal, read-out: MIC in the presence of cations P. aeruginosa): 2.1 µM | MIC P. aeruginosa [9, 20]: 8 µg/mL (≈ 2.19 µM) | MIC in the presence of cations P. aeruginosa [9, 21]: 8 µg/mL | MBC P. aeruginosa [9, 22]: 16 µg/mL | MFC C. parapsilosis ATCC [14]: > 17.5 µM | MIC ([14]; read-out: MIC C. parapsilosis ATCC): 8.75 µM (≈ 32 µg/mL) | MIC [10]: >17.5 µM | MIC [11]: >17.5 µM | MIC [12]: >17.5 µM | MIC [15]: >17.5 µM | MIC (Candida krusei ATCC 6258): >17.5 µM
